The record followed here is patent US10392371B2, “Compounds useful as modulators of TRPM8” (Senomyx, Inc., priority 2015, dated 2019).

For one assay, the target named is T1, hTRPM8 (Homo sapiens, UniProt Q7Z2W7).
T1 construct: expressed in transfected cells
In words: hTRPM8 agonist assay in mammalian cell line stably expressing hTRPM8. The note with it: EC50 of compound compared to that of WS-3, reported as a ratio. The class given is cell-based. Here is the method:
A mammalian cell line derivative which stably expresses hTRPM8 was used in biological assays in association with testing the present compounds with cool-tasting or -feeling properties (Servant et al. US 2007/0259354 A1 and references cited therein). Typical compound concentrations tested were 100 μM, 30 μM, 10 μM, 3.3 μM, 1.1 μM, 0.37 μM, 0.12 μM, 0.04 μM, 0.01 μM and more dilutions for very potent compounds. The present compounds have shown strong activity as agonists of hTRPM8. […] For the sake of comparison, the EC50 of Comparative Compound 1, which was previously disclosed in U.S. 2013/0324557 A1 and has the structure

Assay [1] can be described thus: Sensory evaluation by quantitative descriptive evaluation technique (ten trained panelists, 15-point linescale). The class given is in vivo, human. Here is the method: Compounds 102-105 and Comparative Compound 1 were evaluated using a quantitative descriptive evaluation technique. Ten panelists participated in the study. These panelists previously underwent extensive training in the use of standardized vocabulary to describe the appearance, aroma, flavor, and texture of a variety of products. Data collection was conducted over a period of seven days, with panelists evaluating two samples on each day of testing. Two evaluations were obtained from each panelist for each compound yielding a total of 20 evaluations per compound. During the data collection, the panelists were give a list of attributes and instructed to indicate the intensity of each attribute by indicating the intensity on a 15-point linescale. The intensity was evaluated for the following time periods: in-mouth, after expectoration, and 30 seconds, 1, 2, 5, 10, 15, 30, 45, and 60 minutes into the aftertaste period.
Compounds 102, 103, and 105 were prepared as 5 μM solutions and Compound 104 and Comparative Compound 1 were prepared in 3 μM solutions. 15 mL aliqouts of the test solutions were administered to Panelists in 1 oz. plastic cups coded with a random 3-digit code. The Panelists refrained from brushing their teeth, eating, and drinking one hour before each evaluation. Mean intensities were calculated based on the Panelists responses for each sensory characteristic. The sensory characteristics evaluated were bitter, icy cool in mouth, numbing, cooling breathe in, total burning, alcohol burning, pepperine/capsaicin, tingling, and total trigeminal impact. For each sensory characteristic, the scale of the intensity was designed to cover a range encompassing the universe of products having the indicated sensory characteristic.
After mean intensities for each attribute were calculated, statistical significance for each mean intensity was calculated using analysis of variance (ANOVA) followed by Duncan's multiple comparison test at an alpha level of 5%. […] In the results provided herein, the Duncan's levels are reported as Levels A, B, and C.
Panelists were asked to assess the intensity of both capsaicin-like burning and Alcohol-like Burning sensations for Compounds 102 and 103 and Comparative Compound 1. Capsaicin-like burning is the sensation of warming or burning in the mouth, reminiscent of black pepper or hot sauce while alcohol-like burning is the sensation of warming or burning in the mouth, reminiscent of an alcohol burn. The combination of the intensity of these sensations was used to assess the total burning for the tested compounds. The average total burning after expectoration to 60 minutes was lower for both 5 μM Compound 102 and 5 μM Compound 103 as compared to 3 μM Comparative Compound 1.
The total intensity of trigeminal nerve feeling factors on the soft tissues of the mouth, including numbing, cooling (without breathing in), irritation, warming, burning, and tingling were determined for Compounds 102 and 103 and Comparative Compound 1. The average total trigeminal impact after expectoration to 60 minutes was lower for both 5 μM Compound 102 and 5 μM Compound 103 as compared to 3 μM Comparative Compound 1.
Icy cool in mouth is the sensation of coolness of the mouth, perceived with the mouth closed, not related to the temperature of the sample. Panelists were asked to assess the sensation of icy cool in mouth for Compound 104 and Compound 105 from the time immediately after expectoration of the sample through 60 minutes after expectoration. The average Icy Cool after expectoration to 60 minutes was higher for both 5 μM Compound 105 and 3 μM Compound 104 as compared to 3 μM Comparative Compound 1.
Cooling Breath In is the sensation of coolness of the mouth, when inhaling through the mouth, not related to the temperature of the sample. […]

Assay [2] can be described thus: Cool Line Scale Test (sensory study, cooling intensity vs 45 μM WS-3). The conditions noted are these: for lingering effect: sensory study; for Sensory Results (cooling intensity relative to 45 μM WS-3): 5 μM compound vs 45 μM WS-3, Low Sodium Buffer pH ~7.1, 0.1% ethanol, 15 point line scale. The class given is in vivo, human. As to the method: A typical sensory study is described below followed by Table 5 summarizing sensory results of Compounds 101-105.
All samples made with Low Sodium Buffer (LSB) pH ˜7.1 and contain 0.1% ethanol.
Compounds are rated on a 15 point line scale where 45 μM WS-3 (N-Ethyl-p-menthane-3-carboxamide) is ranked as a 5 in cool intensity. In most cases, the compounds are tested to determine at what concentration the cooling intensity is equivalent to 45 μM WS-3. In each test, the panelist is presented with a 0 μM control sample, a 45 μM WS-3 control sample and the experimental compound sample and asked to rate the cooling intensity of each sample.

T1 sequence (Q7Z2W7 whole entry): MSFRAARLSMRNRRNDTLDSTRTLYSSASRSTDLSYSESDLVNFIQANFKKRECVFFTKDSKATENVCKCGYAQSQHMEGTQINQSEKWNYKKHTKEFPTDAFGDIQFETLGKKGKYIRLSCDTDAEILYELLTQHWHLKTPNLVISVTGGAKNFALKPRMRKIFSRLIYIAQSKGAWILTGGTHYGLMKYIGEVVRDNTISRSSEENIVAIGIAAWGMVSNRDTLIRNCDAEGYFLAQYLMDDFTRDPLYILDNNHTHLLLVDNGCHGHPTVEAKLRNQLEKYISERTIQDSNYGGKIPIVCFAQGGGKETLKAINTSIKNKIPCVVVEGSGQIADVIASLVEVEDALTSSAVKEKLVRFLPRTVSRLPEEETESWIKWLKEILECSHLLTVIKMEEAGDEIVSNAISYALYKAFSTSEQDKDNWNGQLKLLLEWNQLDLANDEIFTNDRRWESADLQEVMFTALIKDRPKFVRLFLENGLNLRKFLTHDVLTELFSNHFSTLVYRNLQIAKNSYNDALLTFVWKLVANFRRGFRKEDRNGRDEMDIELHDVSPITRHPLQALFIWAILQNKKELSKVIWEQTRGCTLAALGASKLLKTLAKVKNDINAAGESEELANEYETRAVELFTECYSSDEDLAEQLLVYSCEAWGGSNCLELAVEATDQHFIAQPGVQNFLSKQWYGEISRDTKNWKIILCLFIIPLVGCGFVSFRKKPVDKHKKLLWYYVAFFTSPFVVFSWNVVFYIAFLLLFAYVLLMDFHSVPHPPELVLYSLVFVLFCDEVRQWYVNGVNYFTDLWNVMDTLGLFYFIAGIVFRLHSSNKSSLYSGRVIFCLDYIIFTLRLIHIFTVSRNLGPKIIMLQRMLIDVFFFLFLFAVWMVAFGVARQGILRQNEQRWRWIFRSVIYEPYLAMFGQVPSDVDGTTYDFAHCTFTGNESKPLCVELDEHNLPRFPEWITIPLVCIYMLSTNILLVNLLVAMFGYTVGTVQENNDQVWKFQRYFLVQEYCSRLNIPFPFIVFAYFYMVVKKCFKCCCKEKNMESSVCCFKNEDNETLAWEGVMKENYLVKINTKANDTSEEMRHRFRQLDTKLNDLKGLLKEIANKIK

Regarding `O=C(COc1ccc(F)cc1)N(Cc1cccs1)c1cc[nH]n1` [Compound 102, 2-(4-flourophenoxy)-N-(1H-pyrazol-5-yl)-N-(thiophen-2-ylmethyl)acetamide], the “EC50 WS-3 Ratio” value at hTRPM8 was determined as 495.4. Moreover, in assay [1] (5 μM solution), the “Average Numbing (after expectoration to 60 minutes)” value (“Average Numbing” for short) came out at 1.4, the “Average Tingling (after expectoration to 60 minutes)” value (“Average Tingling” below) turned out to be 0.6, the “Average Total Burning (after expectoration to 60 minutes)” value (“Average Total Burning” below) was 0.9 and the “Average Total Trigeminal Impact (after expectoration to 60 minutes)” value (“Average Total Trigeminal Impact” for short) is on record as 2.4. Moreover, the “Average Bitterness at 2 Minutes After Expectoration (Bitterness Rating)” value (“Average Bitterness” below) in assay [1] (5 μM solution) amounted to 0.86.
For `Cc1cccc(OCC(=O)N(Cc2cccs2)c2cc[nH]n2)c1` [Compound 101, N-(1H-pyrazol-3-yl)-N-(thiophen-2-ylmethyl)-2-(m-tolyloxy)acetamide], on hTRPM8, the “EC50 WS-3 Ratio” value stood at 696.3.
`Cc1ccc(OCC(=O)N(Cc2cccs2)c2cc[nH]n2)cc1C` [Compound 105, 2-(3,4-dimethylphenoxy)-N-(1H-pyrazol-3-yl)-N-(thiophen-2-ylmethyl)acetamide]: at hTRPM8, the “EC50 WS-3 Ratio” value amounted to 12169.3. Also, the lingering effect entry in assay [2] was “unexpected lingering effect”. Further, in assay [1] (5 μM solution), the “Average Cooling Breath In (after expectoration to 60 minutes)” value is on record as 2.7; the “Average Icy Cool In Mouth (after expectoration to 60 minutes)” value is listed as 2.3; the “Average Icy Cool In Mouth and Immediately After Expectoration” value is reported as 1.9; the “Average Bitterness” value is given as 0.82.
Take `COc1ccc(OCC(=O)N(Cc2cccs2)c2cc[nH]n2)cc1` [Compound 103, 2-(4-methoxyphenoxy)-N-(1H-pyrazol-3-yl)-N-(thiophen-2-ylmethyl)acetamide]: on hTRPM8, the “EC50 WS-3 Ratio” value worked out at 1050.9. Besides, in assay [2], the “Sensory Results (cooling intensity relative to 45 μM WS-3)” value was “equivalent to the cooling” and the lingering effect result is recorded as “unexpected lingering effect”. Besides, in assay [1] (5 μM solution), the “Average Numbing” value amounted to 1.3, the “Average Tingling” value turned out to be 0.6, the “Average Total Burning” value stood at 0.9 and the “Average Total Trigeminal Impact” value is given as 2.3. The “Average Bitterness” value in assay [1] (5 μM solution) amounted to 0.90.
On to `CCc1ccc(OCC(=O)N(Cc2cccs2)c2cc[nH]n2)cc1` [Compound 104, 2-(4-ethylphenoxy)-N-(1H-pyrazol-3-yl)-N-(thiophen-2-ylmethyl)acetamide], for which, at hTRPM8, the “EC50 WS-3 Ratio” value was 1189444. In assay [2], the “Sensory Results (cooling intensity relative to 45 μM WS-3)” value was “significantly more cooling” and the lingering effect entry was “unexpected lingering effect”. In assay [1] (3 μM solution), the “Average Cooling Breath In (after expectoration to 60 minutes)” value was found to be 2.7; the “Average Icy Cool In Mouth (after expectoration to 60 minutes)” value came to 2.3; the “Average Icy Cool In Mouth and Immediately After Expectoration” value came out at 2.0; the “Average Bitterness” value turned out to be 0.77.
For the compound `Cc1ccc(OCC(=O)N(Cc2cccs2)c2ccn[nH]2)cc1` [Comparative Compound 1, reference compound], the “EC50 WS-3 Ratio” value at hTRPM8 is 28648. Besides, in assay [1] (3 μM solution), the “Average Cooling Breath In (after expectoration to 60 minutes)” value is 2.5; the “Average Icy Cool In Mouth (after expectoration to 60 minutes)” value worked out at 2.1; the “Average Icy Cool In Mouth and Immediately After Expectoration” value is 1.8; the “Average Numbing” value was determined as 1.5. Moreover, in assay [1] (3 μM solution), the “Average Tingling” value came to 0.7, the “Average Total Burning” value is 1.1, the “Average Total Trigeminal Impact” value is 2.8 and the “Average Bitterness” value is given as 1.10.
